Reference: patent publication US20050020576A1, “Kappa agonist compounds and pharmaceutical formulations thereof” (priority 1996, published 2005)
Where a name gives a salt, the structure may show the parent alone. Read-outs that look alike come from different tables or passages of the source.

Tests used:
[1] = target: cloned human kappa receptor (Homo sapiens, UniProt P41145); assay: biochemical; type: binding
[2] = test system: formalin-induced flinching; assay: animal or person; type: in vivo, male Sprague-Dawley rats; conditions: for inhibition in vivo at 0.3 µM: Rattus norvegicus, read-out: Formalin (% A @ 300 nM) i. paw
[3] = Table IA, read-out: Ki(nM) (3H)-Diprenorphin

Chain of cloned human kappa receptor (P41145 whole entry): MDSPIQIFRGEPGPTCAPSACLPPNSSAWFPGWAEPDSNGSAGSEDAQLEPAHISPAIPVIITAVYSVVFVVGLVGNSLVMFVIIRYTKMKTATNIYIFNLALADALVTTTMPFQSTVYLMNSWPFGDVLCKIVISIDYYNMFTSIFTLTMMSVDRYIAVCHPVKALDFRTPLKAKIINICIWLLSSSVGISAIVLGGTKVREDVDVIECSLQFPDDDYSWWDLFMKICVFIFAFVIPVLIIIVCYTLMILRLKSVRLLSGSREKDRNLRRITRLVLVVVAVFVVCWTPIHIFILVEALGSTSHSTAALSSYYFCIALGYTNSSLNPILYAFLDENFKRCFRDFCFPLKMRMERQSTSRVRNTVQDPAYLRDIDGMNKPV

CNS(=O)(=O)c1cccc(CC(=O)N(C)[C@H](CN2CCCC2)c2ccccc2)c1OC [Example 3u]
Ki ([1]; Ki (nM) [3H]-Diprenorphin κ): 1 nM
Late Phase Formalin, % @ 300 ([2]; rat, in vivo): 48% @ 300

CC(=O)N1CCN(C(=O)Cc2ccc(Cl)c(Cl)c2)C(CN2CC[C@H](OC(=O)Cc3ccc(Cl)c(Cl)c3)C2)C1 (mixture of isomers) [Example 1w, 4-Acetyl-1-[(3,4-dichlorophenyl)acetyl]-2-(R,S)-[3-(S)-(3′,4′-dichlorophenyl acetate)-1-(pyrrolidinyl)methyl]piperazine hydrochloride]
Ki [1, 3]: 1160 nM
inhibition in vivo at 0.3 µM [2]: 60%

CC(=O)N1CCN(C(=O)Cc2ccc(Cl)c(Cl)c2)C(CN2CCC[C@H]2CO)C1 (mixture of isomers) [Example 1z, 4-Acetyl-1-[(3,4-dichlorophenyl)acetyl]-2-(R,S)-[(2-(S)-pyrrolidinemethanol)methyl]piperazine hydrochloride]
Ki [1, 3]: 102 nM
inhibition in vivo at 0.3 µM [2]: 71%

CS(=O)(=O)N1CCN(C(=O)Cc2ccc(C(F)(F)F)cc2)C(CN2CC[C@H](O)C2)C1 (stereo partly drawn) [Example 1nn, 4-Methylsulphonyl-1-[(4-α,α,α-triflouromethylphenyl)acetyl]-2-(R,S)-[(3-(S)-hydroxy-1-pyrrolidinyl)methyl]piperazine hydrochloride]
Ki ([1]; Ki, nM 3H-Diprenorphin): 2.33 nM
Formalin A50 mg/kg s.c. ([2]; rat, in vivo, sc): 7.1 mg/kg

CN(C(=O)Cc1ccc(O)c(NS(C)(=O)=O)c1)[C@H](CN1CCCC1)c1ccccc1 [Example 124, 2-(3-N-Methylsulfonamido-3-amino-4-hydroxyphenyl)-N-methyl-N-[(1S)-1-phenyl-2-(1-pyrrolidinyl)ethyl]acetamide]
Ki ([1]; Ki (nM) [3H]-Diprenorphin κ): 5.6 nM
Late Phase Formalin (i. paw), % @ 300 ([2]; rat, in vivo): 77% @ 300

COc1ccc(CC(=O)N(C)[C@H](CN2CC[C@H](O)C2)c2ccccc2)cc1NS(C)(=O)=O [Example 127, 2-(3-N-Methylsulfonamido-3-amino-4-methoxyphenyl)-N-methyl-N-[(1S)-1-phenyl-2-[1-(3S)-(3-hydroxypyrrolidinyl)ethyl]]acetamide]
Ki ([1]; Ki (nM) [3H]-Diprenorphin κ): 0.82 nM
Late Phase Formalin (i. paw), % @ 300 ([2]; rat, in vivo): 94% @ 300

COC(=O)N1CCN(C(=O)Cc2ccc(C(F)(F)F)cc2[N+](=O)[O-])C(CN2CCC[C@H]2CO)C1 (mixture of isomers) [Example 1m, Methyl-4-[(2-nitro-4-α,α,α-trifluoromethylphenyl)acetyl]-3-(R,S)-[(2-(S)-pyrrolidinemethanol)methyl]-1-piperazinecarboxylate hydrochloride]
Ki ([1]; Ki, nM 3H-Diprenorphin): 49.5 nM
Formalin A50 mg/kg s.c. ([2]; rat, in vivo, sc): 1.7 mg/kg

COC(=O)N1CCN(C(=O)Cc2ccc(Cl)c(Cl)c2)C(CN2CC[C@H](OC(=O)Cc3ccc(Cl)c(Cl)c3)C2)C1 (mixture of isomers) [Example 1q, Methyl-4-[(3,4-dichlorophenyl)acetyl]-2-(R,S)-[3-(S)-(3′,4′-dichlorophenyl acetate)-1-(pyrrolidinyl)methyl]-1-piperazinecarboxylate hydrochloride]
Ki ([1]; Ki, nM 3H-Diprenorphin): 5.2 nM
inhibition in vivo at 0.3 µM [2]: 98%

CN(C(=O)Cc1ccccc1NS(C)(=O)=O)[C@H](CN1CC[C@H](O)C1)c1ccccc1 [Example 125, 2-(2-N-Methylsulfonamido-2-aminophenyl)-N-methyl-N-[(1S)-1-phenyl-2-[1-(3S)-(3-hydroxypyrrolidinyl)ethyl]]acetamide]
Ki ([1]; Ki (nM) [3H]-Diprenorphin κ): 5.3 nM
Late Phase Formalin (i. paw), % @ 300 ([2]; rat, in vivo): 81% @ 300

COC(=O)N1CCN(C(=O)Cc2ccc(Cl)c(Cl)c2)C(CN2CCC[C@H]2COC(=O)Cc2ccc(Cl)c(Cl)c2)C1 (mixture of isomers) [Example 1k, Methyl-4-[(3,4-dichlorophenyl)acetyl]-3-(R,S)-[(2-(S)-pyrrolidinemethyl-3′,4′-dichlorophenyl acetate)methyl]-1-piperazinecarboxylate hydrochloride]
Ki ([1]; Ki, nM 3H-Diprenorphin): 51.5 nM
inhibition in vivo at 0.3 µM [2]: 95%

CCOP(=O)(Nc1cccc([C@@H](CN2CCCC2)N(C)C(=O)Cc2ccc(Cl)c(Cl)c2)c1)OCC [Example 3g, 2-(3,4-Dichlorophenyl)-N-methyl-N-[(1S)-1-[3-(diethyl Phosphoryl)amino]phenyl)-2-(1-pyrrolidinyl)ethyl]acetamide hydrochloride]
Ki ([1]; Ki (nM) [3H]-Diprenorphin κ): 0.12 nM
Late Phase Formalin A50 ([2]; rat, in vivo): 4.4 mg/kg

CN(C(=O)C(c1ccccc1)c1ccccc1)[C@H](CN1CC[C@H](O)C1)c1ccccc1 [III-43, reference compound]
Late Phase Formalin A50, mg/ms (i-paw) ([2]; rat, in vivo): 59 mg/ms (i-paw) 28 mg/kg (sc)
Late Phase Formalin A50, mg/kg (sc) ([2]; rat, in vivo, sc): 59 mg/ms (i-paw) 28 mg/kg (sc)

CNS(=O)(=O)c1ccccc1CC(=O)N1CCN(C(=O)OC)CC1CN1CCCC1 (racemic) [Example 1e, Methyl-4-[(2-[N-methylamino)sulfamyl]phenyl)acetyl]-3-(R,S)-[(1-pyrrolidinyl)methyl]-1-piperazinecarboxylate hydrochloride]
Ki ([1]; Ki, nM 3H-Diprenorphin): 14 nM
inhibition in vivo at 0.3 µM [2]: 55%

CN(C(=O)Cc1ccc(O)c(N(S(C)(=O)=O)S(C)(=O)=O)c1)[C@H](CN1CCCC1)c1ccccc1 [Example 130, 2-(3-N-Bis-methylsulfonamido-3-amino-4-hydroxyphenyl)-N-methyl-N-[(1S)-1-phenyl-2-(1-pyrrolidinyl)ethyl]acetamide]
Ki ([1]; Ki (nM) [3H]-Diprenorphin κ): 1.3 nM
Late Phase Formalin (i. paw), % @ 300 ([2]; rat, in vivo): 46% @ 300

COc1cc(CC(=O)N(C)[C@H](CN2CCCC2)c2ccccc2)c(S(=O)(=O)N2CCN(C)CC2)cc1OC [Example 138]
Ki ([1]; read-out: Ki(nM) [3H]-Diprenorphin κ): 1.3 nM
Late Phase Formalin (i. paw), % @ 300 ([2]; rat, in vivo): 80% @ 300

CN(C(=O)Cc1ccccc1NS(C)(=O)=O)C(CN1CCCC1)c1ccc(O)cc1 (racemic) [Example 129A, (R,S)-2-(2-N-Methylsulfonamido-2-aminophenyl)-N-methyl-N-1-(4-hydroxyphenyl)-2-(1-pyrrolidinyl)ethyl]acetamide]
Ki ([1]; Ki (nM) [3H]-Diprenorphin κ): 59 nM
Late Phase Formalin (i. paw), % @ 300 ([2]; rat, in vivo): 46% @ 300

CNS(=O)(=O)c1cc(CC(=O)N(C)[C@@H]2CCCC[C@H]2N2CCCC2)ccc1F.Cl (racemic) [Example 4i, (±)-trans-4-Fluoro-3-methylsulfamoyl-N-methyl-N-[2-(1-pyrrolidinyl)cyclohexyl]phenylacetamide hydrochloride]
melting point: 265 to 267 °C
[3H]-Diprenorphin, % @ 1 μM [1]: 31% @ 1 μM

CNS(=O)(=O)c1cccc(CC(=O)N(C)[C@H](CN2CCCC2)c2ccccc2)c1.Cl [Example 3q, 3-(N-Methylsulfamoyl)-phenyl-N-methyl-N-[(1S)-1-phenyl-2-(1-pyrrolidinyl)ethyl]acetamide hydrochloride]
melting point: > 250 °C (dec.)
Ki ([1]; Ki (nM) [3H]-Diprenorphin κ): 3.2 nM

COC(=O)N1CCN(C(=O)Cc2ccc(C(F)(F)F)cc2NCC(=O)O)C(CN2CCCC2)C1 (racemic) [Example 1a, Methyl-4-[-2-glycyl-4-(trifluoromethylphenyl)acetyl]-3-(R,S)-[(1-pyrrolidinyl)-methyl]-1-piperazinecarboxylate]
melting point: 165 to 170 °C
Ki [1, 3]: 248 nM

CN(C(=O)Cc1ccc(O)c(N(S(C)(=O)=O)S(C)(=O)=O)c1)[C@H](CN1CCCC1)c1ccccc1 (as salt: salt) [Example 130, 2-(3-N-Bis-methylsulfonamido-3-amino-4-hydroxyphenyl)-N-methyl-N-[(1S)-1-phenyl-2-(1-pyrrolidinyl)ethyl]acetamide]
melting point: 197 to 199 °C

CN(C(=O)Cc1ccc(N)cc1)[C@H](CN1CCCC1)c1cccc([N+](=O)[O-])c1 (as salt: HCl)
melting point: 200 °C (dec.)

Cl.NS(=O)(=O)N1CCN(C(=O)Cc2ccc(Cl)c(Cl)c2)[C@H](CN2CCCC2)C1
melting point: 183 to 185 °C

CN(C(=O)Cc1ccc(C(F)(F)F)cc1NCC(=O)O)C1CCCCC1N1CCCC1 (centres unmarked) (as salt: HCl)
melting point: 178 to 180 °C (dec.)

CN(C(=O)Cc1ccc(Cl)c(Cl)c1)[C@H](CN1CCCC1)c1cccc(NS(N)(=O)=O)c1 (racemic) (as salt: hydrochloride) [Example 3c, 2-(3,4-Dichlorophenyl)-N-methyl-N-[(1R,S)-1-(3-sulfamidophenyl)-2-(1-pyrrolidinyl)ethyl]acetamide hydrochloride]
melting point: 198 to 200 °C

CS(=O)(=O)O[C@H]1CCN(CC2CN(S(C)(=O)=O)CCN2C(=O)Cc2ccc(Cl)c(Cl)c2)C1 (stereo partly drawn) (as salt: hydrochloride) [Example 1jj, 4-Methanesulfonyl-1-[(3,4-dichlorophenyl)acetyl]-2-(R,S)-[3-(S)-methanesulfonate-1-(pyrrolidinyl)methyl]piperazine hydrochloride]
melting point: 130 to 132 °C

COc1ccc(C(CN2CCCC2)N(C)C(=O)Cc2ccccc2NS(C)(=O)=O)cc1 (racemic) (as salt: salt) [Example 128]
melting point: 170 to 172 °C

CC(=O)N1CCN(C(=O)Cc2cccc([N+](=O)[O-])c2)C(CN2CCCC2)C1 (racemic) (as salt: hydrochloride) [(R,S-10d), (R,S)-4-Acetyl-1-[(3-nitrophenyl)acetyl]-3-[(1-pyrrolidinyl)-methyl]piperazine-carboxylate hydrochloride]
melting point: 143 to 145 °C

CNS(=O)(=O)c1cccc(CC(=O)N(C)[C@@H]2CCCC[C@H]2N2CCCC2)c1OC.Cl (racemic)
melting point: 168 to 170 °C

COc1cc(CC(=O)N(C)[C@H](CN2CCCC2)c2ccccc2)c(S(=O)(=O)N(C)C)cc1OC (as salt: HCl) [Example 136, 2-[2-(N-Dimethylsulfamoyl)-4,5-dimethoxyphenyl]-N-methyl-N-[(1S)-1-phenyl-2-[(1-pyrrolidinyl)ethyl]]acetamide]
melting point: 246 to 248 °C

COc1cc(CC(=O)N(C)[C@H](CN2CCCC2)c2ccccc2)c(S(=O)(=O)N2CCN(C)CC2)cc1OC (as salt: HCl) [Example 138]
melting point: 255 to 257 °C (dec.)

COc1cc(CC(=O)N(C)[C@H](CN2CC[C@H](O)C2)c2ccccc2)c(S(=O)(=O)N2CCCC2)cc1OC (as salt: salt) [Example 135, 2-[2-(N-Pyrrolidinesulfamoyl)-4,5-dimethoxyphenyl]-N-methyl-N-[(1S)-1-phenyl-2-[1-(3S)-(3-hydroxypyrrolidinyl)ethyl]]acetamide]
melting point: > 120 °C (dec.)
